Measurements from patent US12617783B2, “Heterocyclic GLP-1R agonists” (BIOMEA FUSION, INC., priority 2024, dated 2026).
pEC50: −log10 of the molar value. Where two headings read alike, the source gives them in different places.

Target: T1, human GLP-1R (Homo sapiens, UniProt P43220)
T1 construct: host or cells: HEK293
Experiment: GLP-1R cAMP assay (Example B1a, HTRF, 30 min at room temperature)
Type: cell-based
Conditions: for pEC50: read-out: EC50
Outline: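 Competitive HTRF read-out of cAMP after 30 min room-temperature stimulation, BETP absent, of human GLP-1R-HEK293 cells (1,000/well) in HEPES buffer with 500 μM IBMX and 0.1% BSA. Activation normalised to GLP-1(7-37) positive control. EC50 from 4-parameter non-linear regression.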

[1] = cAMP accumulation in HEK293 expressing human GLP-1R, no BETP, 30 min room temperature (Method B1a, compounds ID 1-609), Table 1

T1 sequence (P43220 24-463): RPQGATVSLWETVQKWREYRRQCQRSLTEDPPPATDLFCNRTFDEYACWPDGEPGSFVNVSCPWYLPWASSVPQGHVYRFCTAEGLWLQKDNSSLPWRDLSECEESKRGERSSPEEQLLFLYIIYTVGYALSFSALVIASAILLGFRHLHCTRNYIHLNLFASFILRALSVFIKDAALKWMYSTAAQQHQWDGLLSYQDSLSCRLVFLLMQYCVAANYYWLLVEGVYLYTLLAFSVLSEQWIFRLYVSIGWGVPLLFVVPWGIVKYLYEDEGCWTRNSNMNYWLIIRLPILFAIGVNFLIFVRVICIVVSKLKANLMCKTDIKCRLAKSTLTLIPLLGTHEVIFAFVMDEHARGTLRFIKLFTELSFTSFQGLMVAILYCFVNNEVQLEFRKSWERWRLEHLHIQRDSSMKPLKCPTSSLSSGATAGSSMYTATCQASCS

| Structure (SMILES) | pEC50 [1] | pEC50 (Table 1d, stereoisomer pairs) | potency (text to Table 1d, bridge atoms configured out of the plane or toward the reader) |
| --- | --- | --- | --- |
| Cc1cc(-n2nc3c(c2-n2ccn(-c4ccc5c(cnn5C)c4F)c2=O)[C@H]2COC[C@@H](C3)N2C(=O)c2cc3cc([C@H]4CCOC(C)(C)C4)ccc3n2[C@@]2(c3noc(=O)[nH]3)C[C@@H]2C)cc(C)c1F [Compound 120, 3-((1S,2S)-1-(5-((S)-2,2-dimethyltetrahydro-2H-pyran-4-yl)-2-((4S,8R)-3-(3-(4-fluoro-1-methyl-1H-indazol-5-yl)-2-oxo-2,3-dihydro-1H-imidazol-1-yl)-2-(4-fluoro-3,5-dimethylphenyl)-2,4,5,7,8,9-hexahydro-4,8-epiminooxocino [5,4-c]pyrazole-10-carbonyl)-1H-indol-1-yl)-2-methylcyclopropyl)-1,2,4-oxadiazol-5(4H)-one] | < 5.00 | < 5.00 | little or no potency |
| Cc1cc(-n2nc3c(c2-n2cc(-c4ccc5c(cnn5C)c4F)nn2)[C@H](C)N(C(=O)c2cc4cc([C@H]5CCOC(C)(C)C5)ccc4n2[C@@]2(c4noc(=O)[nH]4)C[C@@H]2C)CC3)cc(C)c1F [Compound 1, 3-((1S,2S)-1-(5-((S)-2,2-dimethyltetrahydro-2H-pyran-4-yl)-2-((S)-3-(4-(4-fluoro-1-methyl-1H-indazol-5-yl)-1H-1,2,3-triazol-1-yl)-2-(4-fluoro-3,5-dimethylphenyl)-4-methyl-4,5,6,7-tetrahydro-2H-pyrazolo[4,3-c]pyridine-5-carbonyl)-1H-indol-1-yl)-2-methylcyclopropyl)-1,2,4-oxadiazol-5 (4H)-one] | < 5.00 | – | – |

Now those with a higher pEC50 [1], led by results:

| pEC50 [1] | Structure (SMILES) | pEC50 (Table 1d, stereoisomer pairs) | potency (text to Table 1d, bridge atoms configured out of the plane or toward the reader) |
| --- | --- | --- | --- |
| 6.58 | Cc1cc(-n2nc3c(c2-n2ccn(-c4ccc5c(cnn5C)c4F)c2=O)[C@@H]2CC[C@H](C3)N2C(=O)c2cc3cn(C4CCOC(C)(C)C4)c(=O)cc3n2[C@@]2(c3noc(=O)[nH]3)C[C@@H]2C)cc(C)c1F (stereo partly drawn) [Compound 324, 3-[(1S,2S)-1-[5-(2,2-dimethyltetrahydropyran-4-yl)-2-[(1S,8R)-4-(4-fluoro-3,5-dimethyl-phenyl)-3-[3-(4-fluoro-1-methyl-indazol-5-yl)-2-oxo-imidazol-1-yl]-4,5,11-triazatricyclo[6.2.1.02,6]undeca-2,5-diene-11-carbonyl]-6-oxo-pyrrolo[3,2-c]pyridin-1-yl]-2-methyl-cyclopropyl]-4H-1,2,4-oxadiazol-5-one] | – | – |
| 6.77 | Cc1cc(-n2nc3c(c2-n2ccn(-c4cc(F)c5c(cnn5C)c4F)c2=O)[C@@H]2COC[C@H](C3)N2C(=O)c2cc3cc(C4CCOC5(CC5)C4)ccc3n2[C@@]2(c3noc(=O)[nH]3)C[C@@H]2C)cc(C)c1F (stereo partly drawn) [Compound 242, 3-((1S,2S)-1-(2-((4R,8S)-3-(3-(4,7-difluoro-1-methyl-1H-indazol-5-yl)-2-oxo-2,3-dihydro-1H-imidazol-1-yl)-2-(4-fluoro-3,5-dimethylphenyl)-2,4,5,7,8,9-hexahydro-4,8-epiminooxocino [5,4-c]pyrazole-10-carbonyl)-5-(4-oxaspiro[2.5]octan-7-yl)-1H-indol-1-yl)-2-methylcyclopropyl)-1,2,4-oxadiazol-5 (4H)-one] | – | – |
| 6.21 | Cc1cc(-n2nc3c(c2-n2ccn(-c4ccc5c(cnn5C)c4F)c2=O)[C@@H]2CC[C@H](CC3)N2C(=O)c2cc3cc([C@H]4CCOC(C)(C)C4)ccc3n2[C@@]2(c3noc(=O)[nH]3)C[C@@H]2C)cc(C)c1F [Compound 523, 3-[(1S,2S)-1-[5-[(4S)-2,2-dimethyltetrahydropyran-4-yl]-2-[(1S,9R)-4-(4-fluoro-3,5-dimethyl-phenyl)-3-[3-(4-fluoro-1-methyl-indazol-5-yl)-2-oxo-imidazol-1-yl]-4,5,12-triazatricyclo[7.2.1.02,6]dodeca-2,5-diene-12-carbonyl]indol-1-yl]-2-methyl-cyclopropyl]-4H-1,2,4-oxadiazol-5-one] | – | – |
